{"source": "patent US20240391955A1", "about": "“PEPTIDE HAVING ANTI-AGING ACTIVITY, AND USE THEREOF” (CAREGEN CO., LTD., priority 2021, published 2024)", "key": {"SIRT1": {"test_system": "SIRT1", "assay": "SIRT1 mRNA level by RT-PCR in HaCaT keratinocytes", "format": "cell-based, human", "conditions": "HaCaT cells, peptide 10, 50, 100 μM, 24 hours, FIG. 3", "experimental": "(§1) First, HaCaT cells were seeded in a 6-well plate at a cell density of 3×10^5 cell/well, and then the cells were cultured in DMEM medium containing 10% fetal bovine serum (FBS) for 24 hours. The cultured cells were washed once with serum free DMEM medium, and then the peptide of the present invention was mixed in 1 mL of the serum free DMEM medium at each of concentrations of 10, 50, and 100 μM, and dispensed into the cells. A positive control (PC) was treated with 100 nM of EGF instead of the above peptide. The cells were cultured in a CO2 incubator at 37° C. for 24 hours.\n(§2) The cultured cells were washed twice with PBS, and then RNA was extracted from the cells using easy blue (iNtRON, Cat. No.: 17061, Korea). The extracted RNA was subjected to RT reaction using a kit (enzynomics, Cat. No.: RT200, Korea). Thereafter, RT-PCR was performed using a PCR kit (enzynomics, Cat. No.: R581T, Korea). The sequences of the primers of SIRT1 and AQP3 used in RT-PCR and the sequence of the primer of GAPDH used to compare the total RNA amount of each treatment group are shown in [Table 2]."}, "MMP-2": {"test_system": "MMP-2", "assay": "MMP-2 activity after UVA irradiation, gelatin zymography", "format": "cell-based, mouse", "conditions": "NIH3T3 cells, culture medium, peptide 10, 50, 100 μM, 6 J/cm^2 UVA, FIG. 6"}, "elastin": {"test_system": "elastin", "assay": "Elastin mRNA level after UVA irradiation, RT-PCR", "format": "cell-based, mouse", "conditions": "NIH3T3 cells, peptide 10, 50, 100 μM, 6 J/cm^2 UVA, FIG. 5", "experimental": "(§3) First, NIH3T3 cells were seeded in a 6-well plate at a cell density of 5×10^5 cell/well, and then the cells were cultured in DMEM medium containing 10% fetal bovine serum (FBS) for 24 hours. The cultured cells were washed once with serum free DMEM medium, and then the peptide of the present invention was mixed in 1 mL of the serum free DMEM medium at each of concentrations of 10, 50, and 100 μM, and dispensed into the cells. A positive control (PC) was treated with 50 μM of Quercetin instead of the above peptide. The cells were cultured in a CO2 incubator at 37° C. for 6 hours.\n(§4) The medium of the cultured cells was transferred to a tube (e-tube), 1 ml of PBS was added, and irradiation was performed with 6 J/cm^2 of UVA using a UV irradiator (VILBER LOURMAT, Cat No.: 3102-BSU, France). After removing PBS, 900 μL of the medium transferred to the tube was dispensed, and culture was performed in a CO2 incubator at 37° C. for 6 hours. The cultured cells were washed twice with PBS, and then RNA was extracted from the cells using easy blue (iNtRON, Cat. No.: 17061, Korea). The amount of RNA extracted was quantified, 1,000 ng of RNA was added per tube, and RT reaction was performed using a kit (enzynomics, Cat. No.: RT200, Korea) Thereafter, RT-PCR was performed using a PCR kit (enzynomics, Cat. No.: R581T, Korea). […]"}, "collagen": {"test_system": "collagen", "assay": "Collagen protein secretion by ELISA in NIH3T3 fibroblasts", "format": "cell-based, mouse", "conditions": "peptide 10, 50, 100 μM, 72 hours, FIG. 2", "experimental": "(§5) First, NIH3T3 cells and HaCaT cells (human keratinocyte cell line) were seeded in a 24-well plate at a cell density of 1×10^4 cell/well, and then the cells were cultured in DMEM medium containing 10% fetal bovine serum (FBS) for 24 hours. The cultured cells were washed once with serum free DMEM medium, and the peptide of the present invention was mixed in 2 mL of the serum free DMEM medium at each of concentrations of 10 μM, 50 μM, 100 μM, and 5 ng/ml, and dispensed into three wells by 500 μL per condition. NIH3T3 cells were treated with 5 ng/ml of TGF-β1 instead of the above peptide as a positive control (PC). HaCaT cells were treated with 10 nM of IGF-1 instead of the above peptide as a positive control (PC). The cells were cultured in a CO2 incubator at 37° C. for 72 hours.\n(§6) The medium of the cultured NIH3T3 and HaCaT cells was centrifuged to settle a suspended matter, a supernatant was transferred to an e-tube, and then each of ELISA (abcam, Cat No.: ab210579, UK) and hyaluronic acid (HA) ELISA (ECHELON biosciences, Cat No.: K-1200, USA) was performed using the same."}, "Colla1": {"test_system": "Colla1", "assay": "Colla1 mRNA level after UVA irradiation, RT-PCR", "format": "cell-based, mouse", "conditions": "NIH3T3 cells, peptide 10, 50, 100 μM, 6 J/cm^2 UVA, FIG. 5", "experimental": "as §3, §4"}, "AQP3": {"test_system": "AQP3", "assay": "AQP3 mRNA level by RT-PCR in HaCaT keratinocytes", "format": "cell-based, human", "conditions": "HaCaT cells, peptide 10, 50, 100 μM, 24 hours, FIG. 3", "experimental": "as §1, §2"}, "elastin gene": {"test_system": "elastin gene", "assay": "Elastin gene expression by RT-PCR in fibroblasts", "format": "cell-based, mouse", "conditions": "NIH3T3 cells, peptide 10, 50, 100 μM, 24 hours, FIG. 1", "experimental": "(§7) First, NIH3T3 cells (mouse fibroblast cell line) were seeded in a 6-well plate at a cell density of 3×10^5 cell/well, and then the cells were cultured in DMEM medium containing 10% fetal bovine serum (FBS) for 24 hours. The cultured cells were washed once with serum free DMEM medium, and the peptide of the present invention was mixed in 1 mL of the serum free DMEM medium at each of concentrations of 10, 50, and 100 μM, and dispensed into the cells. A positive control (PC) was treated with 5 ng/ml of TGF-β1 instead of the above peptide. The cells were cultured in a CO2 incubator at 37° C. for 24 hours.\n(§8) The cultured cells were washed twice with PBS, and RNA was extracted from the cells using easy blue (iNtRON, Cat. No.: 17061, Korea). The amount of RNA extracted was quantified, 1,000 ng of RNA was added per tube, and RT reaction was performed using a kit (enzynomics, Cat. No.: […], Korea). RT-PCR was performed using a PCR kit (enzynomics, Cat. No.: […], Korea). The sequences of the primers of fibronectin and elastin used in RT-PCR and the sequence of the primer of GAPDH used to compare the total RNA amount of each treatment group are shown in [Table 2]."}, "hyaluronic acid": {"test_system": "hyaluronic acid", "assay": "Hyaluronic acid secretion by HA ELISA in HaCaT keratinocytes", "format": "cell-based, human", "conditions": "peptide 10, 50, 100 μM, 72 hours, FIG. 2", "experimental": "as §5, §6"}, "MMP-1 [1]": {"test_system": "MMP-1", "assay": "MMP-1 protein after heat treatment, western blot", "format": "cell-based, mouse", "conditions": "NIH3T3 cells, peptide 10, 50, 100 μM, 44° C. for 40 minutes, FIG. 7", "experimental": "(§9) First, NIH3T3 cells were seeded in a 6-well plate at a cell density of 5×10^5 cell/well, and then the cells were cultured in DMEM medium containing 10% fetal bovine serum (FBS) for 24 hours. The cultured cells were washed once with serum free DMEM medium, and the peptide of the present invention was mixed in 1 mL of the serum free DMEM medium at each of concentrations of 10, 50, and 100 μM, and dispensed into the cells. A positive control (PC) was treated with 2.5 mM of N-acetylcysteine (NaC) instead of the above peptide.\nThe cells were cultured in a CO2 incubator at 37° C. for 24 hours. A lid and a lower plate of the 6-well plate were sealed with a paraffin film for heat treatment, the lower plate was immersed in a water bath at 44° C., and culture was performed for 40 minutes. After removing the medium, 1 mL of serum free DMEM medium was added, and culture was performed in a CO2 incubator at 37° C. for 8 hours. Thereafter, the cells were washed twice with PBS, and then a cell lysis buffer was added to obtain a lysate.\nA sample was prepared by treating the cells with 5× sample buffer, and then SDS-PAGE was performed using 10% SDS-PAGE gel. The proteins isolated through SDS-PAGE were transferred to a PVDF membrane, and blocking was performed at room temperature for 1 hour using 5% skin milk. […]"}, "fibronectin": {"test_system": "fibronectin", "assay": "Fibronectin mRNA level after UVA irradiation, RT-PCR", "format": "cell-based, mouse", "conditions": "NIH3T3 cells, peptide 10, 50, 100 μM, 6 J/cm^2 UVA, FIG. 5", "experimental": "as §3, §4"}, "[2]": {"test_system": "intracellular reactive oxygen species in NIH3T3 cells", "assay": "Intracellular ROS level after UVA irradiation (DCFH-DA, FACS)", "format": "cell-based, mouse", "conditions": "peptide 10, 50, 100 μM, 8 J/cm^2 UVA, 24 hours after irradiation, FIG. 4", "experimental": "First, NIH3T3 cells were seeded in a 6-well plate at a cell density of 5×10^5 cell/well, and then the cells were cultured in DMEM medium containing 10% fetal bovine serum (FBS) for 24 hours. The cultured cells were washed once with serum free DMEM medium, and then the peptide of the present invention was mixed in 1 mL of the serum free DMEM medium at each of concentrations of 10, 50, and 100 μM, and dispensed into the cells. A positive control (PC) was treated with 7.5 mM of N-acetylcysteine (NaC) instead of the above peptide.\nThe cells were cultured in a CO2 incubator at 37° C. for 1 hour. The medium of the cultured cells was transferred to a tube, 1 ml of PBS was added, and irradiation was performed with 8 J/cm^2 of UVA using a UV irradiator (VILBER LOURMAT, Cat No.: 3102-BSU, France). After removing PBS, 900 μL of the medium transferred to the tube was dispensed, and culture was performed in a CO2 incubator at 37° C. for 24 hours. After treatment with 10 μM of dichloro-dihydro-fluorescein diacetate (DCFH-DA), wrapping with a foil was performed, and culture was performed in a CO2 incubator at 37° C. for 30 minutes. The cells were washed twice with PBS, and 500 μL of 1XTE was dispensed to isolate the cells. After centrifugation, the cells were washed with PBS, and a fluorescence value was measured through FACS."}, "MMP-1 [3]": {"test_system": "MMP-1", "assay": "MMP-1 expression after UVA irradiation, western blot", "format": "cell-based, mouse", "conditions": "NIH3T3 cells, peptide 10, 50, 100 μM, 6 J/cm^2 UVA, FIG. 6", "experimental": "as §9\nThe cells were cultured in a CO2 incubator at 37° C. for 1 hour. The medium of the cultured cells was transferred to a tube (e-tube), 1 ml of PBS was added, and irradiation was performed with 6 J/cm^2 of UVA using a UV irradiator (VILBER LOURMAT, Cat No.: 3102-BSU, France). After removing PBS, 900 μL of the medium transferred to the tube was added, and culture was performed in a CO2 incubator at 37° C. for 6 hours. The medium of the cultured cells was transferred to a tube, the cells were washed twice with PBS, and then a cell lysis buffer was added to lyse the cells. A sample was prepared by treating the cells with 5× sample buffer, and then SDS-PAGE was performed using 10% SDS-PAGE gel. The proteins isolated through SDS-PAGE were transferred to a PVDF membrane. Blocking was performed at room temperature for 1 hour using 5% skim milk. […]"}, "fibronectin gene": {"test_system": "fibronectin gene", "assay": "Fibronectin gene expression by RT-PCR in fibroblasts", "format": "cell-based, mouse", "conditions": "NIH3T3 cells, peptide 10, 50, 100 μM, 24 hours, FIG. 1", "experimental": "as §7, §8"}}}
{"substance": "KRRRKRK [SEQ ID NO: 1]", "values": [{"measurement": "mRNA level of SIRT1", "setting": "SIRT1", "result": "increased"}, {"measurement": "activity of MMP-2 increased by UV irradiation", "setting": "MMP-2", "result": "inhibited"}, {"measurement": "mRNA level of elastin decreased by UV irradiation", "setting": "elastin", "result": "increased again"}, {"measurement": "protein secretion of collagen", "setting": "collagen", "result": "gradually increased as the concentration of the peptide increased"}, {"measurement": "mRNA level of Colla1 decreased by UV irradiation", "setting": "Colla1", "result": "increased again"}, {"measurement": "mRNA level of AQP3", "setting": "AQP3", "result": "increased"}, {"measurement": "expression of elastin gene", "setting": "elastin gene", "result": "gradually increased as the concentration of the peptide increased"}, {"measurement": "protein secretion of hyaluronic acid", "setting": "hyaluronic acid", "result": "gradually increased as the concentration of the peptide increased"}, {"measurement": "amount of secretion of MMP-1 protein whose expression was increased by heat treatment", "setting": "MMP-1 [1]", "result": "decreased"}, {"measurement": "mRNA level of fibronectin decreased by UV irradiation", "setting": "fibronectin", "result": "increased again"}, {"measurement": "intracellular reactive oxygen species level increased by UV irradiation", "setting": "[2]", "result": "decreased"}, {"measurement": "expression of MMP-1 increased by UV irradiation", "setting": "MMP-1 [3]", "result": "inhibited"}, {"measurement": "expression of fibronectin gene", "setting": "fibronectin gene", "result": "gradually increased as the concentration of the peptide increased"}]}
